Experiments:
Format in all cases: functional
[1] = system: MCF7; assay: Cell cycle arrest in human MCF7 cells assessed as accumulation at G2/M phase at 4 uM after 24 hrs using propidium iodide staining by FACS analysis (reference value: 19%)
[2] = system: MCF7; assay: Cell cycle arrest in human MCF7 cells assessed as accumulation at S phase at 4 uM after 24 hrs using propidium iodide staining by FACS analysis (reference value: 11%)
[3] = system: MCF7; assay: Cell cycle arrest in human MCF7 cells assessed as accumulation at G1 phase at 4 uM after 24 hrs using propidium iodide staining by FACS analysis (reference value: 70%)
[4] = system: MCF7; assay: Cytotoxicity against human MCF7 cells assessed as cell viability at 4 uM after 48 hrs by MTT assay
[5] = system: MCF7; assay: Cytotoxicity against human MCF7 cells assessed as cell viability at 2 uM after 48 hrs by MTT assay

Compound | Activity [1] | Activity [2] | Activity [3] | OD [4] | OD [5]
COc1ccc2cc(C#Cc3ccc(-n4c(/C=C/c5ccc(OC)c(OC)c5)nc5ccccc5c4=O)c(C)c3)ccc2c1 | 23% | 7% | 70% | 0.6 | 0.7
COc1ccc2cc(C#Cc3ccc(-n4c(/C=C/c5ccc6ccccc6c5)nc5ccccc5c4=O)c(C)c3)ccc2c1 | 22% | 9% | 69% | 0.46 | 0.81
Cc1cc(C#Cc2ccc(C(C)(C)C)cc2)ccc1-n1c(/C=C/c2ccc([N+](=O)[O-])o2)nc2ccccc2c1=O | 17% | 6% | 77% | 0.4 | 0.7
Cc1cc(C#Cc2ccccc2)ccc1-n1c(/C=C/c2cc(O)cc(O)c2)nc2ccccc2c1=O | 10% | 7% | 83% | 0.73 | 0.92
COc1ccc2cc(C#Cc3ccc(-n4c(/C=C/c5ccc([N+](=O)[O-])o5)nc5ccccc5c4=O)c(C)c3)ccc2c1 | 39% | 12% | 49% | 0.58 | 0.66
COc1ccc2cc(C#Cc3ccc(-n4c(/C=C/c5cc(OC)c(OC)c(OC)c5)nc5ccccc5c4=O)c(C)c3)ccc2c1 | 21% | 7% | 72% | 0.58 | 0.57
Cc1cc(C#Cc2ccccc2)ccc1-n1c(/C=C/c2ccc(Cl)cc2)nc2ccccc2c1=O | 18% | 7% | 75% | 0.48 | 0.74
Cc1cc(C#Cc2ccc(C(C)(C)C)cc2)ccc1-n1c(/C=C/c2ccc3c(c2)OCO3)nc2ccccc2c1=O | 23% | 10% | 67% | 0.52 | 0.67
Cc1cc(C#Cc2ccc(C(C)(C)C)cc2)ccc1-n1c(/C=C/c2ccc(Cl)cc2)nc2ccccc2c1=O |  |  |  | 0.59 | 0.71
COc1ccc(/C=C/c2nc3ccccc3c(=O)n2-c2ccc(C#Cc3ccccc3)cc2C)cc1 | 15% | 7% | 78% | 0.73 | 0.84
Cc1ccccc1/C=C/c1nc2ccccc2c(=O)n1-c1ccc(C#Cc2ccccc2)cc1C | 6% | 6% | 88% | 0.51 | 0.78
Cc1cc(C#Cc2ccc(C(C)(C)C)cc2)ccc1-n1c(/C=C/c2ccc([N+](=O)[O-])s2)nc2ccccc2c1=O | 24% | 8% | 68% | 0.25 | 0.54
COc1ccc2cc(C#Cc3ccc(-n4c(/C=C/c5ccc(F)cc5)nc5ccccc5c4=O)c(C)c3)ccc2c1 | 18% | 8% | 74% | 0.57 | 0.67
Cc1cc(C#Cc2ccccc2)ccc1-n1c(/C=C/c2ccc(F)cc2)nc2ccccc2c1=O | 20% | 7% | 73% | 0.61 | 0.75
Cc1cc(C#Cc2ccccc2)ccc1-n1c(/C=C/c2ccc(O)cc2)nc2ccccc2c1=O | 18% | 7% | 75% | 0.58 | 0.87
Cc1cc(C#Cc2ccc(C(C)(C)C)cc2)ccc1-n1c(/C=C/c2cc(O)cc(O)c2)nc2ccccc2c1=O | 18% | 8% | 74% | 0.43 | 0.6
COc1ccc2cc(C#Cc3ccc(-n4c(/C=C/c5c(Cl)cccc5Cl)nc5ccccc5c4=O)c(C)c3)ccc2c1 | 24% | 8% | 68% | 0.63 | 0.77
COc1cc(/C=C/c2nc3ccccc3c(=O)n2-c2ccc(C#Cc3ccc(C(C)(C)C)cc3)cc2C)cc(OC)c1OC | 78% | 8% | 14% | 0.55 | 0.74
Cc1cc(C#Cc2ccc(C(C)(C)C)cc2)ccc1-n1c(/C=C/c2ccc(O)cc2)nc2ccccc2c1=O | 19% | 7% | 74% | 0.52 | 0.71
Cc1cc(C#Cc2ccc(C(C)(C)C)cc2)ccc1-n1c(/C=C/c2ccc3ccccc3c2)nc2ccccc2c1=O | 20% | 8% | 72% | 0.61 | 0.92
Cc1cc(C#Cc2ccccc2)ccc1-n1c(/C=C/c2ccc([N+](=O)[O-])o2)nc2ccccc2c1=O |  |  |  | 0.37 | 0.88
COc1cc(/C=C/c2nc3ccccc3c(=O)n2-c2ccc(C#Cc3ccccc3)cc2C)cc(OC)c1 | 19% | 8% | 73% | 0.61 | 0.93
COc1ccc2cc(C#Cc3ccc(-n4c(/C=C/c5ccnc6ccccc56)nc5ccccc5c4=O)c(C)c3)ccc2c1 | 19% | 7% | 74% | 0.5 | 0.76
Cc1cc(C#Cc2ccccc2)ccc1-n1c(/C=C/c2ccc(O)c([N+](=O)[O-])c2)nc2ccccc2c1=O | 20% | 7% | 73% | 0.51 | 0.9
Cc1cc(C#Cc2ccccc2)ccc1-n1c(/C=C/c2ccc3ccccc3c2)nc2ccccc2c1=O | 24% | 8% | 68% | 0.43 | 0.97

From ChEMBL document CHEMBL3217459, “3-Diarylethyne quinazolinones: a new class of senescence inducers” (Medchemcomm, 2013)
